For experiment [1], the system named is TNBC cell lines. As to the kind of experiment: Combination growth inhibition with BCL-2/BCL-XL inhibitors (Bliss independence model). In kind it is cell-based. Conditions: 6 of the 7 TNBC cell lines tested (data not shown). The procedure: MCL1 and BCL-XL are important but independent determinants of cell survival in TNBC (Goodwin et al., Cell Death Differ 22:2098-106 (2015); Xiao et al., Mol. Cancer Ther. 14:1837-47 (2015); Petrocca et al., Cancer Cell 24:182-96 (2013)). A panel of TNBC cell lines were treated with Cpd. No. 4 in combination with BCL-2 and/or BCL-XL inhibitors, and the excess growth inhibition was computed over the Bliss independence model for each combination pairs (Berenbaum, Adv. Cancer Res., 35:269-335 (1981)). ABT-263 (Tse et al., Cancer Res. 68:3421-8 (2008)) and BM-1197 (Bai et al., PLoS One 2014; 9(6):e99404 doi 10.1371/journal.pone.0099404) were selected as dual BCL-2/BCL-XL inhibitors, […] as a selective BCL-XL inhibitor (Tao et al., ASC Med. Chem. Lett. 5:1088-93 (2014)) and ABT-199 as a selective BCL-2 inhibitor (Souers et al., Nat. Med. 19:202-8 (2013)).

Experiment [2] has as its system TNBC cell lines. Description: Combination apoptosis induction (immunoblotting and/or Annexin-PI staining). In kind it is cell-based. Conditions: for effect on Cpd. No. 4-induced apoptosis: MDA-MB-468, 250 nM with Cpd. No. 4 50 nM (FIG. 14). The procedure: Immunoblotting and/or Annexin-PI staining confirmed that BM-1197 (250 nM), ABT-263 (250 nM), and A-1155463 (250 nM) potentiated Cpd. No. 4-induced apoptosis (50 nM) in MDA-MB-468 (FIG. 14) and other TNBC cell lines (data not shown). Synergistic induction of apoptosis by Cpd. […] No. 4-induced apoptosis in these cell lines. […] A with either BM-1197 (FIGS. 15 and 16) or ABT-263 (data not shown). […] No. 4 and BM-1197 was also detected in additional TNBC cell lines responsive to Cpd. No. 4-induced apoptosis (BT-20 and MDA-MB-157) (data not shown), further supporting that BCL-XL inhibitors potentiate Cpd. No. 4-induced apoptosis in TNBC.
In general terms: Immunoblotting shows a protein as a band on a membrane.

The subject of the next experiment is MDA-MB-231. As to the kind of experiment: Cell growth inhibition (CellTiter-Glo), MDA-MB-231. Type of experiment: cell-based, human. Conditions: Homo sapiens, MDA-MB-231, 96 h, MDA-MB-231 cells, 4 days. The procedure:
(§1) Cell growth inhibitory activity of representative BET bromodomain degraders was determined using CellTiter-Glo® Luminescent Cell Viability Assay. Cells were seeded in 384-well white opaque cell culture plates at a density of 2,000 cells/well with serially diluted compounds and incubated at 37° C. in an atmosphere of 95% air and 5% CO2 for 4 days. Cell viability was determined using the CellTiter-Glo® Luminescent Cell Viability Assay Kit (Promega, Madison, Wis.) according to the manufacture's instruction. Briefly, a volume of CellTiter-Glo® Reagent equal to the volume of cell culture medium was added to each well, and then the plates were incubated at room temperature for 10-20 minutes. The luminescent signal was measured using a Tecan Infinite M1000 multimode microplate reader (Tecan, Morrisville, N.C.). The half maximal inhibitory concentration (IC50) was calculated using the GraphPad Prism 5 software (GraphPad Software, La Jolla, Calif.).

The next experiment has as its system MOLM-13. Description: Cell growth inhibition (CellTiter-Glo), MOLM-13. The conditions noted are these: Homo sapiens, MOLM-13, 96 h, MOLM-13 cells, 4 days. Type of experiment: cell-based. The protocol:
as §1
Background: In ATP-based viability assays light output follows the ATP content of the culture.

The next experiment relates to MDA-MB-231 xenograft. Description: In vivo antitumor activity in MDA-MB-231 xenograft model (Example 25). Details: species or system SCID mice. The protocol: (§2) For the in vivo efficacy experiments of this example, when tumors reached 80-200 mm^3, SCID mice were randomized into groups. Cpd. A, Cpd. No. 4, Cpd. No. 6, or vehicle control (10% PEG400: 3% Cremophor: 87% PBS, or 2% TPGS:98% PEG200) was given at the dose and duration indicated. Tumor sizes and animal weights were measured 2-3 times per week. Tumor volume (mm^3)=(length×width^2)/2. Tumor growth inhibition was calculated as TGI (%)=(Vc−Vt)/(Vc−Vo)*100, where Vc, Vt are the median of control and treated groups at the end of the study and Vo at the start. All the in vivo studies were performed under an animal protocol approved by the University Committee on Use and Care of Animals of the University of Michigan, in accordance with the recommendations in the Guide for the Care and Use of Laboratory Animals of the National Institutes of Health.
(§3) No. 4 was determined in xenograft tumor models of TNBC cell lines.

A further experiment relates to MDA-MB-468 xenograft. Description: In vivo antitumor activity in MDA-MB-468 xenograft model. Details: species or system SCID mice. The procedure: as §2, §3

From US10633386B2, “BET protein degraders” (THE REGENTS OF THE UNIVERSITY OF MICHIGAN, priority 2016, dated 2020) come the findings set out here.

Usually IC50 stands for the concentration that inhibits the measured activity by half.

For `CN(C)CC#Cc1ccc(OCCCc2sc(N3CCc4cccc(C(=O)Nc5nc6ccccc6s5)c4C3)nc2C(=O)O)c(F)c1` [A-1155463], the “synergy with Cpd. No. 4 (excess growth inhibition over Bliss independence model)” value in the experiment with TNBC cell lines [1] was “Modest to strong synergy”. Moreover, the “effect on Cpd. No. 4-induced apoptosis” value in the experiment with TNBC cell lines [2] is given as “potentiated”.
`CC1(C)CCC(c2ccc(Cl)cc2)=C(CN2CCN(c3ccc(C(=O)NS(=O)(=O)c4ccc(N[C@H](CCN5CCOCC5)CSc5ccccc5)c(S(=O)(=O)C(F)(F)F)c4)cc3)CC2)C1` [ABT-263]: the “synergy with Cpd. No. 4 (excess growth inhibition over Bliss independence model)” value with TNBC cell lines [1] is recorded as “Modest to strong synergy”. The “effect on Cpd. No. 4-induced apoptosis” value in the experiment with TNBC cell lines [2] is listed as “potentiated”.
Regarding `Cc1c(S(C)(=O)=O)c(-c2cc(F)cc(N3CCN(c4ccc(NS(=O)(=O)c5ccc(N[C@H](CCN6CCC(O)CC6)CSc6ccccc6)c(S(=O)(=O)C(F)(F)F)c5)cc4)CC3)c2)c(-c2ccc(Cl)cc2)n1C(C)C` [BM-1197], the “synergy with Cpd. No. 4 (excess growth inhibition over Bliss independence model)” value in the experiment on TNBC cell lines [1] is listed as “Modest to strong synergy”. Also, the “apoptosis induction by the combination of Cpd. No. 4 and BM-1197” value in the experiment on TNBC cell lines [2] (BT-20 and MDA-MB-157 (data not shown)) is listed as “synergistic apoptosis induction”. In addition, the “effect on apoptosis induction by Cpd. No. 4” value in the experiment on TNBC cell lines [2] (MDA-MB-213 cells (FIG. 15)) and in the experiment with TNBC cell lines [2] (MDA-MB-453 cells (FIG. 16)) was “enhances apoptosis induction by Cpd. No. 4” in each case. Moreover, in the experiment with TNBC cell lines [2], the “effect on Cpd. No. 4-induced apoptosis” value is listed as “potentiated”.
Consider `CCn1nc(C2CC2)cc1Nc1nc(C(=O)NCCCCCc2cccc3c2CN(C2CCC(=O)NC2=O)C3=O)nc2[nH]c3cc(-c4c(C)noc4C)c(OC)cc3c12` (centres unmarked) [Cpd. No. 6], for which the IC50 was 1 nM with MDA-MB-231 and less than 0.8 nM with MOLM-13. Further, the tumor growth entry with MDA-MB-231 xenograft (MDA-MB-231 xenograft model in mice (FIG. 10)) and with MDA-MB-468 xenograft (MDA-MB-468 xenograft model in mice (FIG. 11)) was “reduce tumor growth” in each case. Moreover, the “antitumor activity relative to Cpd. A at 50 mg/kg, daily oral dosing, 5 days a week for 3 weeks” value with MDA-MB-231 xenograft (MDA-MB-231 xenograft model, 5 mg/kg, IV, 3 times per week for 3 weeks) is “comparable to or stronger than that of Cpd. A”; in the experiment on MDA-MB-468 xenograft (MDA-MB-468 xenograft model, 5 mg/kg, IV, 3 times per week for 3 weeks) it was “comparable to or stronger than that of Cpd. A”. In addition, the antitumor activity entry is listed as “exerted antitumor activity” with MDA-MB-231 xenograft (MDA-MB-231 xenograft model, 5 mg/kg, IV, 3 times per week for 3 weeks (FIG. 10)) and “exerted antitumor activity” with MDA-MB-468 xenograft (MDA-MB-468 xenograft model, 5 mg/kg, IV, 3 times per week for 3 weeks (FIG. 11)).
